# Square brackets hold non-standard residues; d marks the D form. Peptide text beside a SMILES is read from it. * marks the point of attachment. 1Nal = N[C@@H](Cc1cccc2ccccc12)C(=O)O; Npys = O=[N+]([O-])c1cccnc1S*; Leu(ol) = CC(C)C[C@H](N)CO; Cbz = O=C(OCc1ccccc1)*; Mpa = O=C(O)CCS
# Target: T1, human renin (Homo sapiens, UniProt P00797)
# T1 sequence (P00797 67-406): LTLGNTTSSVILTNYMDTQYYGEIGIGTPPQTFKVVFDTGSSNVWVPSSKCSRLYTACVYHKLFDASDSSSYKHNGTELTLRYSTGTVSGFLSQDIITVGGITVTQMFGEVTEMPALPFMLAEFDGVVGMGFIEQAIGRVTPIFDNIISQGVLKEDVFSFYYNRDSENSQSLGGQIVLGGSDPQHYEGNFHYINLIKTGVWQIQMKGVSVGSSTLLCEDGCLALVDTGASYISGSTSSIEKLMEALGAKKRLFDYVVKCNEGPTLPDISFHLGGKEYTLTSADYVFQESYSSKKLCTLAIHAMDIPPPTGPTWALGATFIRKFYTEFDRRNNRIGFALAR
# Assay: Inhibition of renin activity (human renin with sheep angiotensinogen, assay of angiotensin I)
# Assay type: biochemical
# Details: test compound 5 × 10^-5 mole/liter, phosphate buffer pH 7.3, 10 minutes at 37° C., mean of 3 or 4 experiments
# Description: The ability of various compounds of the invention to inhibit the activity of renin was determined according to the following method.
# Specifically, each test compound was dissolved in 60% v/v aqueous ethanol. Human renin activity in the presence and absence of each compound was measured using sheep angiotensinogen. The total volume of 1 ml of assay mixture contained 0.1 mole/liter phosphate buffer (pH 7.3), human renin (equivalent to 0.5 ng angiotensin I per ml per minute), sheep angiotensinogen (equivalent to 200 ng angiotensin I), the indicated concentration of the test compound, 6% ethanol and angiotensinase inhibitors (10 mmole/liter sodium ethylenediaminetetraacetate and 3.4 mmole/liter 8-hydroxyquinoline). The mixture was allowed to react for 10 minutes at 37° C., and then the reaction was stopped by placing the reaction tube in a boiling water bath for 5 minutes. The mixture was then centrifuged and the supernatant (0.05-0.1 ml) was used to assay remaining angiotensin I.
# An identical experiment was carried out, as a control, except that the test compound was omitted. From the values obtained were calculated the % inhibition of renin activity achieved by each test compound. The results are shown in the following Table, in which the compounds of the invention are identified by the numbers assigned to them in the foregoing list. The values given are the mean of 3 or 4 experiments.
row,SMILES,% Inhibition
1,"CC(C)C[C@@H](C=O)NC(=O)[C@H](Cc1c[nH]cn1)NC(=O)[C@H](Cc1ccccc1)NC(=O)CCCc1ccccc1 [Compound 1, N-(4-phenylbutyryl)-L-phenylalanyl-L-histidyl-L-leucinal]",53%
2,"CC(C)C[C@@H](C=O)NC(=O)[C@H](Cc1c[nH]cn1)NC(=O)[C@H](Cc1ccccc1)NC(=O)CCSSc1ncccc1[N+](=O)[O-] [Compound 2, N-[3-(3-nitro-2-pyridyldithio)propionyl]-L-phenylalanyl-L-histidyl-L-leucinal] ([Mpa](Npys)FHL-aldehyde)",70%
3,"CC(C)C[C@@H](C=O)NC(=O)[C@H](Cc1c[nH]cn1)NC(=O)[C@H](Cc1cccc2ccccc12)NC(=O)OCc1ccccc1 [Compound 3, N-benzyloxycarbonyl-3-(1-naphthyl)-L-alanyl-L-histidyl-L-leucinal] (Cbz-[1Nal]-His-Leu-aldehyde)",54%
4,"CC(C)C[C@@H](CO)NC(=O)[C@H](Cc1c[nH]cn1)NC(=O)[C@H](Cc1ccccc1)NC(=O)OCc1ccccc1 [Compound 10, N-benzyloxycarbonyl-L-phenylalanyl-L-histidyl-L-leucinol] (Cbz-Phe-His-[Leu(ol)])",58%
5,"CC(C)C[C@@H](CO)NC(=O)[C@H](Cc1c[nH]cn1)NC(=O)[C@H](Cc1ccccc1)NC(=O)CCSSc1ncccc1[N+](=O)[O-] [Compound 11, N-[3-(3-nitro-2-pyridyldithio)propionyl]-L-phenylalanyl-L-histidyl-L-leucinol] ([Mpa](Npys)FH[Leu(ol)])",70%
6,"CC(C)C[C@@H](CO)NC(=O)[C@H](Cc1c[nH]cn1)NC(=O)[C@H](Cc1cccc2ccccc12)NC(=O)OCc1ccccc1 [Compound 14, N-benzyloxycarbonyl-3-(1-naphthyl)-L-alanyl-L-histidyl-L-leucinol] (Cbz-[1Nal]-His-[Leu(ol)])",71%
